{"source": "patent US20120329770A1", "about": "“CEPHALOSPORIN DERIVATIVES USEFUL AS BETA-LACTAMASE INHIBITORS AND COMPOSITIONS AND METHODS OF USE THEREOF” (priority 2010, published 2012)", "key": {"[1]": {"target": "MBL CfiA (Aeromonas hydrophila, UniProt P26918)", "sequence (P26918 28-254)": "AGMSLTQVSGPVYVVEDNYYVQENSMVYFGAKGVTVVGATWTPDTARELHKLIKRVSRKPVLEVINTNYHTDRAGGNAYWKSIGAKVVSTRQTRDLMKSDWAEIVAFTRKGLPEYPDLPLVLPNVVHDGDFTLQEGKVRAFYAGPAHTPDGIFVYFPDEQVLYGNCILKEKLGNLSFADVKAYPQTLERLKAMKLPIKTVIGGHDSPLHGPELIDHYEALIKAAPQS", "conditions": "cited from earlier work"}, "[2]": {"target": "T1, IMP-1 (Serratia marcescens, UniProt P52699)", "T1 construct": "made in house; host or cells: Escherichia coli BL21(DE3) carrying pCIP4", "T1 sequence (P52699 19-246 limits assumed)": "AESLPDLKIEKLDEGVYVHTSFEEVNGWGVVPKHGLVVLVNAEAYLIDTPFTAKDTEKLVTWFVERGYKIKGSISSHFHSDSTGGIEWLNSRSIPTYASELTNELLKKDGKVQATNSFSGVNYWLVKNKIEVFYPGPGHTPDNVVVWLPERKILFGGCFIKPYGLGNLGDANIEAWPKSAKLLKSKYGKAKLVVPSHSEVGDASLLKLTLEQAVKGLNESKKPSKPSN", "experiment": "Inhibition of IMP-1-catalyzed hydrolysis of meropenem in vitro (310 nm)", "type": "biochemical"}, "[3]": {"target": "T2, class D β-lactamase OXA-10 (Pseudomonas aeruginosa, UniProt P14489)", "T2 construct": "indicating a post-translational deletion of a 20 amino acid signal peptide; made in house; host or cells: Escherichia coli BL21 (DE3), pET24a-blaOXA-10, purified from culture supernatant", "T2 sequence (P14489 20-266)": "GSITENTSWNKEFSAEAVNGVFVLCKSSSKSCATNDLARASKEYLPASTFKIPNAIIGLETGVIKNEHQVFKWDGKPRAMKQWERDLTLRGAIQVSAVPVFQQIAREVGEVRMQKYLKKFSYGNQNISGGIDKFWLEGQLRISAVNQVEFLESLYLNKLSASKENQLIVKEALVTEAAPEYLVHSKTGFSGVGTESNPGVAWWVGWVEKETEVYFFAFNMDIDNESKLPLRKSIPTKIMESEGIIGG", "experiment": "Inhibition of β-lactamases, nitrocefin hydrolysis", "type": "biochemical", "description": "OXA-10 β-lactamase was expressed and purified using a modified protocol of that reported by Golemi et al. (J. Am. Chem. Soc. 2000, 122, 6132-6133). The pET24a plasmid with the blaOXA-10 gene insert, a kind gift from Prof. S. Mobashery (Notre Dame University), was transformed into Escherichia coli BL21 (DE3) and induced with IPTG. Purification of the enzyme was achieved by the addition of ammonium sulfate to the induced culture supernatant. The protein precipitate collected (50-70% ammonium sulfate saturation) was dissolved and dialyzed against 10 mM Tris.SO4 buffer, pH 7.5, and further purified with a DE52 cellulose column (Whatman, UK) equilibrated with the same buffer. The material bound to the column was washed with 10 mM Tris.SO4 buffer, pH 7.5, followed by an elution with a K2SO4 gradient (0-100 mM). Protein fractions containing nitrocefin-hydrolyzing activity were concentrated and purity analyzed by SDS-PAGE. A molecular weight of 27,490 Da for OXA-10 was determined by ESI MS, indicating a post-translational deletion of a 20 amino acid signal peptide.\n(§1) Assay conditions for IC50 determinations involved enzyme concentrations ranging between 2 and 6 nM. […]\n(§2) Inhibitors were pre-incubated for 10 minutes at room temperature with enzyme assay solutions prior to the addition of the nitrocefin. […] Enzymatic activity was determined using the initial rate of increase in absorbance at 482 nm"}, "[4]": {"target": "class B β-lactamase NDM-1 (Klebsiella pneumoniae, UniProt C7C422)", "sequence (C7C422 29-270, looked up)": "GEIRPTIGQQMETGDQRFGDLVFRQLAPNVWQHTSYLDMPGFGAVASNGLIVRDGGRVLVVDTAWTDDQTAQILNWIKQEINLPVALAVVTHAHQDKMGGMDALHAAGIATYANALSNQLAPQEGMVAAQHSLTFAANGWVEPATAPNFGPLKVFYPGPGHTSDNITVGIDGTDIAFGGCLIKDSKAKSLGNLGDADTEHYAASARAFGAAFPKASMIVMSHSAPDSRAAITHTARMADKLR", "experiment": "Inhibition of β-lactamases, nitrocefin hydrolysis", "type": "biochemical", "conditions": "15 μM nitrocefin"}, "[5]": {"target": "T3, IMP-1 metallo-β-lactamase (Serratia marcescens, UniProt P52699)", "T3 construct": "made in house; host or cells: Escherichia coli BL21(DE3) carrying pCIP4", "T3 sequence (P52699 19-246, looked up)": "as the sequence (P52699 19-246 limits assumed) above", "experiment": "Inhibition of β-lactamases, nitrocefin hydrolysis", "type": "biochemical", "conditions": "nitrocefin 100 μM, 10 min pre-incubation; read-out: IC50 IMP-1 (Class B)", "description": "IMP-1 metallo-β-lactamase was expressed in Esherichia coli BL21(DE3) carrying pCIP4 and purified as reported by Laraki et al. (Antimicrob. Agents Chemother. 1999, 43, 902-906). The homogeneity of the protein was confirmed by SDS-PAGE according to the method of Laemmli (Nature 1970, 227, 680-685). The molecular weight of purified IMP-1, Mr=25,112±0.5 Da, as determined by ESI-MS, was in agreement with that deduced from its amino acid sequence (Laraki et al. Antimicrob. Agents Chemother. 1999, 43, 890-901).\n(§3) Assay conditions for IC50 determinations involved enzyme concentrations ranging between 2 and 6 nM. The concentration used for the nitrocefin substrate was 100 μM. Assays with OXA-10 and OXA-45 were conducted at pH 7.0 with 100 mM sodium phosphate buffer containing 25 mM sodium bicarbonate. Assays with KPC-2 and GC1 were performed at pH 7.0 in 50 mM HEPES buffer and assays with IMP-1 and VIM-2 were performed in the same buffer with the addition of 500 mM NaCl and 1 μM ZnSO4. BSA was used with all enzymes (except OXA-10 and KPC-2) at concentrations of 0.5-1.0 μg/mL.\nInhibitors were pre-incubated for 10 minutes at room temperature with enzyme assay solutions prior to the addition of the nitrocefin. These compounds were dissolved in DMSO and prepared at various concentrations such that the final concentration of DMSO was 1% during the pre-incubation. The reaction was initiated by the addition of the pre-incubated enzyme-cyclobutanone solution (90 μL) to a solution of nitrocefin in buffer (10 μL). Enzymatic activity was determined using the initial rate of increase in absorbance at 482 nm"}, "[6]": {"target": "T4, class A β-lactamase KPC-2 (Klebsiella pneumoniae, UniProt Q9F663)", "T4 construct": "calculated for a mature protein with a 24 amino acid signal peptide removed; made in house; host or cells: Escherichia coli DH5α (pBR322-catI-blaKPC-2)", "T4 sequence (Q9F663 25-293, looked up)": "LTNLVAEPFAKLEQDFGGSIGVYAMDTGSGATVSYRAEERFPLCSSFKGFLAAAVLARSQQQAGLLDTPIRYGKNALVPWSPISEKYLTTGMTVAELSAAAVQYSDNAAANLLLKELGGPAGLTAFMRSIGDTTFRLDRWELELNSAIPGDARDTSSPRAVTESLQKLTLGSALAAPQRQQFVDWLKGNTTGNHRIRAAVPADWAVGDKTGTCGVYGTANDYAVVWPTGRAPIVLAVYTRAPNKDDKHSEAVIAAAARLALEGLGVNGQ", "experiment": "Inhibition of β-lactamases, nitrocefin hydrolysis", "type": "biochemical", "conditions": "nitrocefin 100 μM, 10 min pre-incubation", "description": "The KPC-2 β-lactamase was purified from Escherichia coli DH5α strain containing the plasmid, pBR322-catI-blaKPC-2, which was kindly provided by Prof. F. van den Akker (Case Western Reserve University). Expression and purification of the enzyme was similar to that reported by Ke et al. (Biochemistry 2007, 46, 5732-5740). A molecular weight of 28,472 Da for the purified KPC-2 was determined by ESI MS. This is in close agreement with that calculated for a mature protein with a 24 amino acid signal peptide removed.\nas §3, §2"}, "[7]": {"target": "T5, class C β-lactamase GC1 (Enterobacter cloacae, UniProt Q59401)", "T5 construct": "made in house; host or cells: Escherichia coli AS226-51 harbouring pCS100", "T5 sequence (Q59401 entry or part of it)": "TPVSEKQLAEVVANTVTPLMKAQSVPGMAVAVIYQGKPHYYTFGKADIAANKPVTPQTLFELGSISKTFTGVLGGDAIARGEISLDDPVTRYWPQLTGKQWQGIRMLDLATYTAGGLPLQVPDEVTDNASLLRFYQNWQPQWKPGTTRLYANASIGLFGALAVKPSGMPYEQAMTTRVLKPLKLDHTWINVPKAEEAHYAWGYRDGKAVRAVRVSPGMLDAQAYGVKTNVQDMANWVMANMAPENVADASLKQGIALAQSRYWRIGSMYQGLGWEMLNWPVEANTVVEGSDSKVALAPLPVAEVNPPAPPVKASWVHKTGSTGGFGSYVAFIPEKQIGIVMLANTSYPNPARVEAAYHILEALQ", "experiment": "Inhibition of β-lactamases, nitrocefin hydrolysis", "type": "biochemical", "conditions": "nitrocefin 100 μM, 10 min pre-incubation", "description": "GC1 β-lactamase was purified from Escherichia coli AS226-51 harbouring pCS100, which was a generous gift from Prof. M. Nukaga (Josai International University, Japan). The cell culture was harvested and subjected to a stringent periplasmic lysis protocol according to Crichlow et al. (Biochemistry 1999, 38, 10256-10261.). Purification proceeded similarly to Nukaga et al. (J. Biol. Chem. 2004, 279, 9344-9352.) with cation exchange chromatography (CM Sephadex C-50) equilibrated with 10 mM sodium phosphate buffer (pH 6), followed by elution with a stepwise gradient of increasing NaCl concentration. Fractions containing β-lactamase activity were then applied to a phenylboronate column (MoBiTec, Germany), equilibrated with 20 mM triethanolamine.HCl, pH 7.0, 0.5 M NaCl. The column was washed with the same buffer and then eluted with sterile 0.5 M borate buffer, pH 7.0, 0.5 M NaCl. Active fractions eluted from the phenylboronate column were analyzed for purity via SDS-PAGE, pooled, and concentrated before buffer exchange to 100 mM sodium phosphate, pH 7.0.\nas §1, §2"}, "[8]": {"target": "T6, VIM-2 metallo-β-lactamase (Pseudomonas aeruginosa, UniProt Q9K2N0)", "T6 construct": "made in house; host or cells: Escherichia coli BL21 (DE3) pLysS carrying pNOR2001", "experiment": "Inhibition of β-lactamases, nitrocefin hydrolysis", "type": "biochemical", "conditions": "nitrocefin 100 μM, 10 min pre-incubation; read-out: IC50 VIM-2 (Class B)", "description": "VIM-2 metallo-β-lactamase was expressed in Escherichia coli BL21 (DE3) pLysS carrying pNOR2001 (a generous gift from P. Nordmann, Université Paris XI, France) and purified as reported by Poirel et al. (Antimicrob. Agents Chemother. 2000, 44, 891-897). The homogeneity and molecular weight of the mature VIM-2 (29.7 kDa) was determined by SDS-PAGE (Laemmli, U. K. Nature 1970, 227, 680-685). Enzyme concentration was determined from the absorbance at 280 nm (εEM=32,000 M^−1 cm^−1).\nas §3, §2"}}}
{"smiles": "CO[C@@]1(NC(=O)C(C(=O)O)c2ccc(O)cc2)C(=O)N2C(C(=O)O)=C(CSc3nnnn3C)CO[C@@H]21", "note": "(stereo partly drawn) [moxalactam]", "values": [{"measurement": "incubation required for full inactivation of CfiA", "setting": "[1]", "value": 14, "unit": "h"}, {"measurement": "performance as inhibitor", "setting": "[2]", "value": "poor performance"}, {"measurement": "protection of meropenem from IMP-1-catalyzed hydrolysis in vitro", "setting": "[2]; IMP-1 12 nM, meropenem 200 μM, test substance 100 μM, 310 nm", "value": "poor protection"}]}
{"smiles": "O=C(Cc1ccc(F)cc1)N[C@@H]1C(=O)N2C(C(=O)O)=C(CSC(=O)c3ccccc3)CS[C@H]12", "note": "[drawing 28]", "values": [{"measurement": "IC50", "setting": "[3]", "value": 6.3, "unit": "µM"}, {"measurement": "IC50", "setting": "[4]", "value": 40, "unit": "µM"}, {"measurement": "IC50", "setting": "[5]", "value": 8.2, "unit": "µM"}, {"measurement": "IC50", "setting": "[6]", "value": 104, "unit": "µM"}, {"measurement": "IC50", "setting": "[7]", "value": 11, "unit": "µM"}, {"measurement": "IC50", "setting": "[8]", "value": 4.2, "unit": "µM"}]}
